Reference: ChEMBL document CHEMBL1158915, “The Effect of Aridanin Isolated from Tetrapleuratetraptera and Serotonin on the Isolated Gastrointestinal Tract Smooth Muscles of Biomphalaria glabrata and Uptake of Calcium” (1990)
Activity calls are given as the source filed them. No cut-off for these calls is given here.

What was measured:
Esophagus [1] = test: Effect on Biomphalaria glabrata esophageal rhythmicity assessed as increase in contraction at 1.0 x 10^-7 to 9.6 x 10^-6 M; type: functional
Biomphalaria glabrata [2] = test: Effect on Biomphalaria glabrata intestinal rhythmicity assessed as increase in contraction at 1.2 x 10^-6 to 1.9 x 10^-5 M; type: functional, tissue-based; conditions: Intestine
Esophagus [3] = test: Effect on Biomphalaria glabrata esophageal rhythmicity assessed as tissue contraction in presence of 8.5 to 320 nM methysergide; type: functional, tissue-based
Biomphalaria glabrata [4] = test: Effect on Biomphalaria glabrata intestinal rhythmicity assessed as tissue contraction in presence of 8.5 to 320 nM methysergide; type: functional, tissue-based; conditions: Intestine
Biomphalaria glabrata [5] = test: Effect on Biomphalaria glabrata intestinal rhythmicity assessed as tissue contraction in presence of 8.5 to 320 nM cyproheptadine; type: functional, tissue-based; conditions: Intestine
Esophagus [6] = test: Effect on Biomphalaria glabrata esophageal rhythmicity assessed as increase in phasic contraction in relaxation phase at 1.92 x 10^-8 to 4 x 10^-7 M; type: functional, tissue-based
Esophagus [7] = test: Effect on Biomphalaria glabrata esophageal rhythmicity assessed as potentiation in amplitude of contraction at 4.8 x 10^-10 M; type: functional, tissue-based
Esophagus [8] = test: Effect on Biomphalaria glabrata esophageal rhythmicity assessed as tissue contraction in presence of 8.5 to 320 nM cyproheptadine; type: functional, tissue-based
Biomphalaria glabrata [9] = test: Effect on Biomphalaria glabrata intestinal rhythmicity assessed as potentiation in amplitude of contraction at 4.8 x 10^-10 M; type: functional, tissue-based; conditions: Intestine
Biomphalaria glabrata [10] = test: Effect on Biomphalaria glabrata intestinal rhythmicity assessed as potentiation of tissue contracture in presence of 10 uM propranolol; type: functional, tissue-based; conditions: Intestine
Biomphalaria glabrata [11] = test: Inhibition of calcium uptake in Biomphalaria glabrata assessed as available calcium in test solution at 0.25 ppm after 7 weeks; type: functional
Esophagus [12] = test: Effect on Biomphalaria glabrata esophageal rhythmicity assessed as potentiation of tissue contracture in presence of 0.1 uM verapamil; type: functional
Esophagus [13] = test: Effect on Biomphalaria glabrata esophageal rhythmicity assessed as potentiation of tissue contracture in presence of 1 to 100 nM cyproheptadine; type: functional, tissue-based
Biomphalaria glabrata [14] = test: Effect on Biomphalaria glabrata intestinal rhythmicity assessed as potentiation of tissue contracture in presence of 1 to 100 nM methysergide; type: functional, tissue-based; conditions: Intestine
Biomphalaria glabrata [15] = test: Effect on Biomphalaria glabrata intestinal rhythmicity assessed as potentiation of tissue contracture in presence of 0.1 mM lanthanum; type: functional, tissue-based; conditions: Intestine
Esophagus [16] = test: Effect on Biomphalaria glabrata esophageal rhythmicity assessed as potentiation of tissue contracture in presence of 10 uM propranolol; type: functional, tissue-based
Biomphalaria glabrata [17] = test: Inhibition of calcium uptake in Biomphalaria glabrata assessed as available calcium in test solution at 0.25 ppm after 6 weeks; type: functional
Biomphalaria glabrata [18] = test: Inhibition of calcium uptake in Biomphalaria glabrata assessed as available calcium in test solution at 0.125 ppm after 8 weeks; type: functional
Biomphalaria glabrata [19] = test: Effect on Biomphalaria glabrata intestinal rhythmicity assessed as potentiation of tissue contracture in presence of 1 to 100 nM cyproheptadine; type: functional, tissue-based; conditions: Intestine
Esophagus [20] = test: Effect on Biomphalaria glabrata esophageal rhythmicity assessed as potentiation of tissue contracture in presence of 1 to 100 nM methysergide; type: functional, tissue-based
Biomphalaria glabrata [21] = test: Inhibition of calcium uptake in Biomphalaria glabrata assessed as available calcium in test solution at 0.125 ppm after 7 weeks; type: functional
Biomphalaria glabrata [22] = test: Effect on Biomphalaria glabrata intestinal rhythmicity assessed as potentiation of tissue contracture in presence of 0.1 uM verapamil; type: functional, tissue-based; conditions: Intestine
Esophagus [23] = test: Effect on Biomphalaria glabrata esophageal rhythmicity assessed as potentiation of tissue contracture in presence of 1 uM atropine; type: functional, tissue-based
Biomphalaria glabrata [24] = test: Inhibition of calcium uptake in Biomphalaria glabrata assessed as available calcium in test solution at 0.125 ppm after 4 weeks; type: functional
Biomphalaria glabrata [25] = test: Effect on Biomphalaria glabrata intestinal rhythmicity assessed as enhanced tissue contracture at 4.0 x 10^-7 to 3 x 10^-6 M; type: functional, tissue-based; conditions: Intestine
Biomphalaria glabrata [26] = test: Inhibition of calcium uptake in Biomphalaria glabrata assessed as available calcium in test solution at 0.125 ppm after 9 weeks; type: functional
Biomphalaria glabrata [27] = test: Inhibition of calcium uptake in Biomphalaria glabrata assessed as available calcium in test solution at 0.125 ppm after 2 weeks; type: functional
Biomphalaria glabrata [28] = test: Inhibition of calcium uptake in Biomphalaria glabrata assessed as available calcium in test solution at 0.125 ppm after 3 weeks; type: functional
Biomphalaria glabrata [29] = test: Inhibition of calcium uptake in Biomphalaria glabrata assessed as available calcium in test solution at 0.25 ppm after 9 weeks; type: functional
Biomphalaria glabrata [30] = test: Inhibition of calcium uptake in Biomphalaria glabrata assessed as available calcium in test solution at 0.25 ppm after 5 weeks; type: functional
Biomphalaria glabrata [31] = test: Inhibition of calcium uptake in Biomphalaria glabrata assessed as available calcium in test solution at 0.25 ppm after 2 weeks; type: functional
Biomphalaria glabrata [32] = test: Inhibition of calcium uptake in Biomphalaria glabrata assessed as available calcium in test solution at 0.125 ppm after 10 weeks; type: functional
Biomphalaria glabrata [33] = test: Inhibition of calcium uptake in Biomphalaria glabrata assessed as available calcium in test solution at 0.25 ppm after 8 weeks; type: functional
Biomphalaria glabrata [34] = test: Inhibition of calcium uptake in Biomphalaria glabrata assessed as available calcium in test solution at 0.25 ppm after 4 weeks; type: functional
Biomphalaria glabrata [35] = test: Inhibition of calcium uptake in Biomphalaria glabrata assessed as available calcium in test solution at 0.125 ppm after 6 weeks; type: functional
Biomphalaria glabrata [36] = test: Inhibition of calcium uptake in Biomphalaria glabrata assessed as available calcium in test solution at 0.125 ppm after 5 weeks; type: functional
Biomphalaria glabrata [37] = test: Inhibition of calcium uptake in Biomphalaria glabrata assessed as available calcium in test solution at 0.25 ppm after 10 weeks; type: functional
Biomphalaria glabrata [38] = test: Effect on Biomphalaria glabrata intestinal rhythmicity assessed as potentiation of tissue contracture in presence of 1 uM atropine; type: functional, tissue-based; conditions: Intestine
Esophagus [39] = test: Effect on Biomphalaria glabrata esophageal rhythmicity assessed as enhanced tissue contracture at 4.0 x 10^-7 to 3 x 10^-6 M; type: functional, tissue-based
Biomphalaria glabrata [40] = test: Inhibition of calcium uptake in Biomphalaria glabrata assessed as available calcium in test solution at 0.25 ppm after 3 weeks; type: functional
Esophagus [41] = test: Effect on Biomphalaria glabrata esophageal rhythmicity assessed as potentiation of tissue contracture in presence of 0.1 mM lanthanum; type: functional, tissue-based
Biomphalaria glabrata [42] = test: Inhibition of calcium uptake in Biomphalaria glabrata assessed as available calcium in test solution at 0.25 ppm after 1 week; type: functional
Biomphalaria glabrata [43] = test: Inhibition of calcium uptake in Biomphalaria glabrata assessed as available calcium in test solution at 0.125 ppm after 1 week; type: functional

NCCc1c[nH]c2ccc(O)cc12
Activity (Esophagus [1]): Active | Activity (Biomphalaria glabrata [2]): Active | Activity (Esophagus [3]): inactive | Activity (Biomphalaria glabrata [4]): inactive | Activity (Biomphalaria glabrata [5]): inactive | Activity (Esophagus [6]): Active | Activity (Esophagus [7]): Active | Activity (Esophagus [8]): inactive | Activity (Biomphalaria glabrata [9]): Active

CC(=O)N[C@H]1[C@H](O[C@H]2CC[C@]3(C)[C@H]4CC=C5[C@H]6CC(C)(C)CC[C@]6(C(=O)O)CC[C@@]5(C)[C@]4(C)CC[C@H]3C2(C)C)O[C@H](CO)[C@@H](O)[C@@H]1O [ARIDANIN]
Activity (Biomphalaria glabrata [10]): Active | Activity (Biomphalaria glabrata [11]): 73 ppm | Activity (Esophagus [12]): inactive | Activity (Esophagus [13]): inactive | Activity (Biomphalaria glabrata [14]): Active | Activity (Biomphalaria glabrata [15]): inactive | Activity (Esophagus [16]): Active | Activity (Biomphalaria glabrata [17]): 52.5 ppm | Activity (Biomphalaria glabrata [18]): 49.8 ppm | Activity (Biomphalaria glabrata [19]): inactive | Activity (Esophagus [20]): Active | Activity (Biomphalaria glabrata [21]): 68.7 ppm | Activity (Biomphalaria glabrata [22]): inactive | Activity (Esophagus [23]): Active | Activity (Biomphalaria glabrata [24]): 28.9 ppm | Activity (Biomphalaria glabrata [25]): Active | Activity (Biomphalaria glabrata [26]): 69.6 ppm | Activity (Biomphalaria glabrata [27]): 19.9 ppm | Activity (Biomphalaria glabrata [28]): 22.2 ppm | Activity (Biomphalaria glabrata [29]): 70.8 ppm | Activity (Biomphalaria glabrata [30]): 19 ppm | Activity (Biomphalaria glabrata [31]): 19.8 ppm | Activity (Biomphalaria glabrata [32]): 89 ppm | Activity (Biomphalaria glabrata [33]): 47.7 ppm | Activity (Biomphalaria glabrata [34]): 26.5 ppm | Activity (Biomphalaria glabrata [35]): 51.1 ppm | Activity (Biomphalaria glabrata [36]): 18.7 ppm | Activity (Biomphalaria glabrata [37]): 90.4 ppm | Activity (Biomphalaria glabrata [38]): Active | Activity (Esophagus [39]): Active | Activity (Biomphalaria glabrata [40]): 24.2 ppm | Activity (Esophagus [41]): inactive | Activity (Biomphalaria glabrata [42]): 28.3 ppm | Activity (Biomphalaria glabrata [43]): 28.2 ppm
